# Laboratory results reported in patent US9695155B2, “Herbicidal substituted pyrimidinyloxy benzene compounds” (E. I. DU PONT DE NEMOURS AND COMPANY, priority 2013, dated 2017).
# Experiments:
# [1] = tested on: chamomile; assay: Test D preemergence; format: in vivo, Matricaria inodora
# Text: (§1) Seeds of plant species selected from bluegrass (annual bluegrass, Poa annua), blackgrass (Alopecurus myosuroides), canarygrass (littleseed canarygrass, Phalaris minor), chickweed (common chickweed, Stellaria media), galium (catchweed bedstraw, Galium aparine), bromegrass, downy (downy bromegrass, Bromus tectorum), field poppy (Papaver rhoeas), field violet (Viola arvensis), green foxtail (Setaria viridis), deadnettle (henbit deadnettle, Lamium amplexicaule), Italian ryegrass (Lolium multiflorum), kochia (Kochia scoparia), lambsquarters (Chenopodium album), oilseed rape (Brassica napus), pigweed (Amaranthus retroflexus), chamomile (scentless chamomile, Matricaria inodora), Russian thistle (Salsola kali), speedwell (bird's-eye speedwell, Veronica persica), spring barley (Hordeum vulgare), spring wheat (Triticum aestivum), wild buckwheat (Polygonum convolvulus), wild mustard (Sinapis arvensis), wild oat (Avena fatua), wild radish (Raphanus raphanistrum), windgrass (Apera spica-venti), winter barley (Hordeum vulgare), and winter wheat (Triticum aestivum) were planted into a silt loam soil and treated preemergence with test chemicals formulated in a non-phytotoxic solvent mixture which included a surfactant.
# (§2) At the same time, these species were planted in pots containing Redi-Earth® planting medium (Scotts Company, 14111 Scottslawn Road, Marysville, Ohio 43041) comprising spaghnum peat moss, vermiculite, wetting agent and starter nutrients and treated with postemergence applications of the test chemicals formulated in the same manner. Plants ranged in height from 2 to 18 cm (1- to 4-leaf stage). Treated plants and controls were maintained in a controlled growth environment for 7 to 21 days after which time all species were compared to controls and visually evaluated. Plant response ratings, summarized in Table D, are based on a scale of 0 to 100 where 0 is no effect and 100 is complete control. A dash (-) response means no test result.
# [2] = tested on: canarygrass; assay: Test D postemergence; format: in vivo, Phalaris minor
# In short: (§3)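 Seeds sown in silt loam soil got preemergence sprays; plants in peat/vermiculite potting medium were sprayed postemergence at 2–18 cm (1- to 4-leaf stage). Chemicals were formulated in a non-phytotoxic solvent mixture with surfactant. After 7 to 21 days in a controlled environment, injury was rated visually versus controls, 0 (no effect) to 100 (complete control).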
# [3] = tested on: wild radish; assay: Test D preemergence; format: in vivo, Raphanus raphanistrum
# In short: as §3
# [4] = tested on: lambsquarters; assay: Test D preemergence; format: in vivo, Chenopodium album
# In short: as §3
# [5] = tested on: windgrass; assay: Test D postemergence; format: in vivo, Apera spica-venti
# Text: as §1, §2
# [6] = tested on: speedwell; assay: Test D postemergence; format: in vivo, Veronica persica
# Text: as §1, §2
# [7] = tested on: galium; assay: Test D postemergence; format: in vivo, Galium aparine
# Text: as §1, §2
# [8] = tested on: bromegrass, downy; assay: Test D preemergence; format: in vivo, Bromus tectorum
# Text: as §1, §2
# [9] = tested on: green foxtail; assay: Test D preemergence; format: in vivo, Setaria viridis
# In short: as §3
# [10] = 16 g ai/ha, scale 0 (no effect) to 100 (complete control)
# [11] = 31 g ai/ha, scale 0 to 100 (0 no effect, 100 complete control)
# [12] = 62 g ai/ha, scale 0 to 100 (0 no effect, 100 complete control)
# [13] = 125 g ai/ha, scale 0 to 100 (0 no effect, 100 complete control)
compound,measurement,setting,value
FCc1cccc(Oc2ncc(Cl)cn2)c1-n1cc(I)cn1 [Compound 245],"Plant response rating, Chamomile",[1]; [10],25
same,"Plant response rating, Chamomile","[1]; 31 g ai/ha, scale 0-100",30
same,"Plant response rating, Chamomile","[1]; 62 g ai/ha, scale 0-100",55
same,"Plant response rating, Chamomile","[1]; 125 g ai/ha, scale 0-100",100
same,"Plant response rating, Canarygrass","[2]; 16 g ai/ha, scale 0-100",0
same,"Plant response rating, Canarygrass",[2]; [11],20
same,"Plant response rating, Canarygrass",[2]; [12],25
same,"Plant response rating, Canarygrass",[2]; [13],35
same,"Plant response rating, Radish, Wild",[3]; [10],0
same,"Plant response rating, Radish, Wild","[3]; 31 g ai/ha, scale 0 (no effect) to 100 (complete control)",0
same,"Plant response rating, Radish, Wild","[3]; 125 g ai/ha, scale 0-100",85
same,"Plant response rating, Lambsquarters",[4]; [10],85
same,"Plant response rating, Lambsquarters","[4]; 31 g ai/ha, scale 0-100",100
same,"Plant response rating, Lambsquarters","[4]; 62 g ai/ha, scale 0-100",100
same,"Plant response rating, Lambsquarters","[4]; 125 g ai/ha, scale 0-100",100
same,"Plant response rating, Windgrass","[5]; 16 g ai/ha, scale 0-100",10
same,"Plant response rating, Windgrass",[5]; [11],15
same,"Plant response rating, Windgrass",[5]; [12],15
same,"Plant response rating, Windgrass",[5]; [13],25
same,"Plant response rating, Speedwell","[6]; 16 g ai/ha, scale 0-100",100
same,"Plant response rating, Speedwell",[6]; [11],100
same,"Plant response rating, Speedwell",[6]; [12],100
same,"Plant response rating, Speedwell",[6]; [13],100
same,"Plant response rating, Galium","[7]; 16 g ai/ha, scale 0-100",70
same,"Plant response rating, Galium",[7]; [11],75
same,"Plant response rating, Galium",[7]; [12],90
same,"Plant response rating, Galium",[7]; [13],98
same,"Plant response rating, Bromegrass, Downy",[8]; [10],0
same,"Plant response rating, Bromegrass, Downy","[8]; 31 g ai/ha, scale 0-100",0
same,"Plant response rating, Bromegrass, Downy","[8]; 62 g ai/ha, scale 0-100",35
same,"Plant response rating, Bromegrass, Downy","[8]; 125 g ai/ha, scale 0-100",40
same,"Plant response rating, Foxtail, Green",[9]; [10],0
same,"Plant response rating, Foxtail, Green","[9]; 31 g ai/ha, scale 0-100",0
same,"Plant response rating, Foxtail, Green","[9]; 62 g ai/ha, scale 0-100",0
same,"Plant response rating, Foxtail, Green","[9]; 125 g ai/ha, scale 0-100",35
